Assay results as given in PubChem BioAssay AID180 (DTP/NCI, 2004).
Values joined by “and” are separate entries in the source; they are usually repeats but may differ in a detail not shown here. Equal values may be shown once.

Test system: BDF1 mice, Adenocarcinoma 755 s.c., tumor weight T/C
Assay: NCI In Vivo Anticancer Drug Screen. Data for tumor model Adenocarcinoma 755 (subcutaneous) in B6D2F1 (BDF1) mice
Conditions: endpoint: mean tumor weight, schedule: Q01DX011 (ip), higher = larger tumour
Summary of the method: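 Values express treated (T) relative to vehicle-dosed control (C) animals, based on survival or tumour size measured after compound treatment of mice bearing a transplanted tumour.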

[1] = dose: 31.25 mg/kg/injection, vehicle: methylcellulose (MC)
[2] = dose: 125.0 mg/kg/injection, vehicle: methylcellulose (MC)
[3] = dose: 31.0 mg/kg/injection, vehicle: methylcellulose (MC)
[4] = dose: 62.0 mg/kg/injection, vehicle: methylcellulose (MC)
[5] = dose: 50.0 mg/kg/injection, vehicle: carboxymethylcellulose (CMC)
[6] = dose: 100.0 mg/kg/injection, vehicle: carboxymethylcellulose (CMC)
[7] = dose: 30.0 mg/kg/injection, vehicle: carboxymethylcellulose (CMC)
[8] = dose: 60.0 mg/kg/injection, vehicle: carboxymethylcellulose (CMC)
[9] = dose: 120.0 mg/kg/injection, vehicle: carboxymethylcellulose (CMC)
[10] = dose: 30.0 mg/kg/injection, vehicle: methylcellulose (MC)
[11] = dose: 120.0 mg/kg/injection, vehicle: methylcellulose (MC)

CN(C)C1C(=O)C(C(N)=O)=C(O)C2(O)C(=O)C3=C(O)c4c(O)cccc4C(C)(O)C3C(O)C12 (configuration not stated)
T/C (dose: 19.5 mg/kg/injection, vehicle: carboxymethylcellulose (CMC)): 78 % of control
T/C (dose: 19.86 mg/kg/injection, vehicle: carboxymethylcellulose (CMC)): 106 % of control
T/C [1]: 117 % of control
T/C (dose: 39.0 mg/kg/injection, vehicle: carboxymethylcellulose (CMC)): 91 % of control
T/C (dose: 50.0 mg/kg/injection, vehicle: water): 81 % of control
T/C (dose: 62.4 mg/kg/injection, vehicle: carboxymethylcellulose (CMC)): 46 % of control
T/C (dose: 62.5 mg/kg/injection, vehicle: methylcellulose (MC)): 69 % of control
T/C (dose: 63.56 mg/kg/injection, vehicle: carboxymethylcellulose (CMC)): 119 % of control
T/C (dose: 78.0 mg/kg/injection, vehicle: carboxymethylcellulose (CMC)): 95 % of control and 110 % of control
T/C (dose: 79.45 mg/kg/injection, vehicle: carboxymethylcellulose (CMC)): 92 % of control and 75 % of control and 87 % of control
T/C (dose: 100.0 mg/kg/injection, vehicle: water): 45 % of control
T/C (dose: 104.0 mg/kg/injection, vehicle: carboxymethylcellulose (CMC)): 65 % of control
T/C (dose: 105.93 mg/kg/injection, vehicle: carboxymethylcellulose (CMC)): 96 % of control and 87 % of control
T/C [2]: 73 % of control
T/C (dose: 150.0 mg/kg/injection, vehicle: water): 14 % of control

CCCCOP(=O)(OCCCC)OCC1OC(n2cnc3c(=S)nc[nH]c32)C(O)C1O (configuration not stated)
T/C [3]: 100 % of control
T/C [4]: 65 % of control
T/C [2]: 46 % of control

NC(=O)CF
T/C (dose: 2.5 mg/kg/injection, vehicle: other): 72 % of control

Nc1nc(=S)cc(Nc2ccccc2Cl)[nH]1
T/C [3]: 101 % of control
T/C [4]: 156 % of control
T/C [2]: 93 % of control
T/C (dose: 250.0 mg/kg/injection, vehicle: methylcellulose (MC)): 122 % of control

COC(=O)C1=COC(C)C2CN3CCc4c([nH]c5cc(OC)ccc45)C3CC12 (configuration not stated)
T/C (dose: 22.0 mg/kg/injection, vehicle: other): 116 % of control
T/C (dose: 44.0 mg/kg/injection, vehicle: other): 98 % of control
T/C (dose: 87.5 mg/kg/injection, vehicle: other): 80 % of control

c1ccc(CSc2ncnc3nc[nH]c23)nc1
T/C (dose: 0.75 mg/kg/injection, vehicle: carboxymethylcellulose (CMC)): 102 % of control
T/C (dose: 1.5 mg/kg/injection, vehicle: carboxymethylcellulose (CMC)): 40 % of control
T/C (dose: 3.0 mg/kg/injection, vehicle: carboxymethylcellulose (CMC)): 26 % of control
T/C (dose: 6.0 mg/kg/injection, vehicle: carboxymethylcellulose (CMC)): 9 % of control
T/C (dose: 12.0 mg/kg/injection, vehicle: carboxymethylcellulose (CMC)): 7 % of control
T/C [5]: 5 % of control
T/C [6]: 4 % of control

Cn1c(=O)c2c(nc(N/N=C/c3cccc(Br)c3)n2C)n(C)c1=O
T/C [7]: 93 % of control
T/C [8]: 111 % of control
T/C [9]: 88 % of control

Cc1nc(C(N)=O)nc2ccccc12
T/C [1]: 102 % of control
T/C [5]: 99 % of control
T/C [6]: 80 % of control
T/C (dose: 200.0 mg/kg/injection, vehicle: carboxymethylcellulose (CMC)): 58 % of control
T/C (dose: 400.0 mg/kg/injection, vehicle: carboxymethylcellulose (CMC)): 32 % of control

CN(C)S(=O)(=O)c1nc(Cl)c2[nH]cnc2n1
T/C (dose: 25.0 mg/kg/injection, vehicle: carboxymethylcellulose (CMC)): 98 % of control
T/C (dose: 75.0 mg/kg/injection, vehicle: carboxymethylcellulose (CMC)): 89 % of control
T/C (dose: 225.0 mg/kg/injection, vehicle: carboxymethylcellulose (CMC)): 58 % of control

O=C(Nc1ccc(C2=NCCS2)cc1)c1ccc(C(=O)Nc2ccc(C3=NCCS3)cc2)cc1
T/C [10]: 118 % of control
T/C [11]: 121 % of control

CCCCOP(=O)(N1CC1C)N1CC1C (configuration not stated)
T/C (dose: 2.0 mg/kg/injection, vehicle: saline): 92 % of control and 96 % of control and 114 % of control
T/C (dose: 32.0 mg/kg/injection, vehicle: saline): 25 % of control

CN(C)c1nc(N)c2ncn(C3OC(CO)C(O)C3O)c2n1 (configuration not stated)
T/C [3]: 80 % of control
T/C [2]: 74 % of control

O=P(Oc1ccccc1)(OP(=O)(Oc1ccccc1)N(CCCl)CCCl)N(CCCl)CCCl (configuration not stated)
T/C (dose: 25.0 mg/kg/injection, vehicle: other): 82 % of control
T/C (dose: 50.0 mg/kg/injection, vehicle: other): 66 % of control

O=C(Nc1ccc(N=Nc2ccc(O)c(C(=O)O)c2)c(S(=O)(=O)O)c1)c1ccc(C(=O)Nc2ccc(N=Nc3ccc(O)c(C(=O)O)c3)c(S(=O)(=O)O)c2)cc1
T/C [7]: 82 % of control
T/C [8]: 64 % of control
T/C [9]: 70 % of control
T/C (dose: 240.0 mg/kg/injection, vehicle: carboxymethylcellulose (CMC)): 42 % of control

O=C(N/N=C\c1ccc(Br)cc1)c1ccncc1
T/C [10]: 52 % of control
T/C (dose: 60.0 mg/kg/injection, vehicle: methylcellulose (MC)): 52 % of control
T/C [11]: 62 % of control
T/C (dose: 240.0 mg/kg/injection, vehicle: methylcellulose (MC)): 37 % of control
T/C (dose: 500.0 mg/kg/injection, vehicle: methylcellulose (MC)): 64 % of control

NC(=O)c1ccc(NC(=O)CCC(=O)Nc2ccc(C(N)=O)cn2)nc1
T/C (dose: 0.25 mg/kg/injection, vehicle: carboxymethylcellulose (CMC)): 83 % of control
T/C (dose: 0.5 mg/kg/injection, vehicle: carboxymethylcellulose (CMC)): 93 % of control
T/C (dose: 1.0 mg/kg/injection, vehicle: carboxymethylcellulose (CMC)): 80 % of control
T/C (dose: 2.0 mg/kg/injection, vehicle: carboxymethylcellulose (CMC)): 33 % of control
T/C (dose: 2.5 mg/kg/injection, vehicle: carboxymethylcellulose (CMC)): 16 % of control
T/C (dose: 5.0 mg/kg/injection, vehicle: carboxymethylcellulose (CMC)): 7 % of control
